According to US3974165A, “Hypotensive agents” (Bristol-Myers Company, priority 1974, dated 1976):
In brackets after ≈: the same amount, converted by molar mass.

Columns and labels:
conscious rats = assay: Effect of compounds on mean aortic pressure and heart rate in conscious rats (oral); format: in vivo, genetically hypertensive rats; conditions: for Heart Rate / mean aortic pressure / Heart Rate % Change / Aortic Pressure % Change: 50 mg/kg po; for Aortic Pressure % Change: - denotes a decrease in b.p.
Experimental: The blood pressure of unanesthetized rats and dogs was measured directly by means of a transducer attached to an intra-arterial cannula and in anesthetized dogs by a mercury manometer attached to a carotid cannula.
The compounds of the instant invention were tested as the hydrochloride salts by the above method in genetically hypertensive rats in doses of 50 mg./kg. orally.
Compounds were studied by oral administration in conscious rats for their effects on aortic pressure and cardiac rate.

[1] = as compared to compound 1; Jen et al, J. Med. Chem. 16, 633 (1973); cited from earlier work
[2] = system: adenosine diphosphate (ADP) induced platelet aggregation; assay: In vitro inhibition of ADP induced platelet aggregation (aggregometer method of Born); format: cell-based; conditions: Oryctolagus cuniculus; rabbit platelet rich plasma, ADP 0.5 mcg./ml.
Experimental: (§1) The aggregometer method of Born (1), as modified by Mustard et al (2) was used to assess the in vitro activity of the various compounds as to inhibition of adenosine diphosphate (ADP) and collagen induced platelet aggregation. Platelet rich plasma was separated by centrifugation from citrated (3.8 per cent) rabbit blood. ADP in final concentration of 0.5 mcg./ml. or 0.05 ml. of a collagen suspension prepared according to the method described by Evans et al. (3) was used to induce aggregation. The various compounds tested were dissolved in dimethylsulfoxide (DMSO) so that 5 mcl. added to the platelet rich plasma would yield the desired test concentration. Vehicle control trials were done and compared with aggregation induced in platelet rich plasma containing various concentrations of the test compounds. Dose response curves were obtained and Effective Concentration (EC50) values calculated.
(§2) 1. Born, G.V.R J. Physiol., London, 162, 67P (1962).
(§3) 2. mustard, J. F., Hegardt, B. Rowsell, H. C. and MacMillan, R. L., J. Lab. Clin. Med. 64, 548 (1964).
(§4) 3. Evans, G. Marian, M. C., Packham, M. A., Nishizawa, E. E., Mustard, J. F. and Murphy, E. A., J. Exp. Med., 128, 877 (1968).

[3] = system: collagen induced platelet aggregation; assay: In vitro inhibition of collagen induced platelet aggregation (aggregometer method of Born); format: cell-based; conditions: Oryctolagus cuniculus; rabbit platelet rich plasma, 0.05 ml. collagen suspension
Experimental: as §1, §2, §3, §4

[4] = oral administration, conscious rats

O=C1CC2Cc3ccccc3N=C2N1 (centres unmarked) [BL-4369]
Heart Rate (conscious rats; N=3, 0 min (baseline)): 350±25 Beats/Min | mean aortic pressure (conscious rats; N=3, 0 min (baseline)): 114±2 mmHg | Heart Rate (conscious rats; N=3, 30 min): 420±19 Beats/Min | Heart Rate % Change (conscious rats; N=3, 30 min): 21±9% | mean aortic pressure (conscious rats; N=3, 30 min): 91±6 mmHg | Aortic Pressure % Change (conscious rats; N=3, 30 min): -20±6% | Heart Rate (conscious rats; N=3, 90 min): 414±26 Beats/Min | Heart Rate % Change (conscious rats; N=3, 90 min): 19±9% | mean aortic pressure (conscious rats; N=3, 90 min): 110±3 mmHg | Aortic Pressure % Change (conscious rats; N=3, 90 min): -3±4% | Heart Rate (conscious rats; N=3, 150 min): 370±31 Beats/Min | Heart Rate % Change (conscious rats; N=3, 150 min): 6±8% | mean aortic pressure (conscious rats; N=3, 150 min): 101±3 mmHg | Aortic Pressure % Change (conscious rats; N=3, 150 min): -11±2% | Heart Rate (conscious rats; N=3, 300 min): 382±25 Beats/Min | Heart Rate % Change (conscious rats; N=3, 300 min): 10±7% | mean aortic pressure (conscious rats; N=3, 300 min): 109±8 mmHg

Cc1cccc2c1CC1CC(=O)NC1=N2 (centres unmarked) [BL-4412]
Heart Rate (conscious rats; N=3, 0 min (baseline)): 352±21 Beats/Min | mean aortic pressure (conscious rats; N=3, 0 min (baseline)): 126±2 mmHg | Heart Rate (conscious rats; N=3, 30 min): 464±24 Beats/Min | Heart Rate % Change (conscious rats; N=3, 30 min): 34±15% | mean aortic pressure (conscious rats; N=3, 30 min): 86±1 mmHg | Aortic Pressure % Change (conscious rats; N=3, 30 min): -32% | Heart Rate (conscious rats; N=3, 90 min): 432±12 Beats/Min | Heart Rate % Change (conscious rats; N=3, 90 min): 24±10% | mean aortic pressure (conscious rats; N=3, 90 min): 86±2 mmHg | Aortic Pressure % Change (conscious rats; N=3, 90 min): -31.2% | Heart Rate (conscious rats; N=3, 150 min): 422±12 Beats/Min | Heart Rate % Change (conscious rats; N=3, 150 min): 21±11% | mean aortic pressure (conscious rats; N=3, 150 min): 89±4 mmHg | Aortic Pressure % Change (conscious rats; N=3, 150 min): -29% | Heart Rate (conscious rats; N=3, 300 min): 422±19 Beats/Min | Heart Rate % Change (conscious rats; N=3, 300 min): 1±12% | Aortic Pressure % Change (conscious rats; N=3, 300 min): -25% | effect on aortic pressure (in words) (conscious rats; [4]): appreciable fall in aortic pressure | effect on heart rate (in words) (conscious rats; [4]): not out of proportion to the fall in aortic pressure

c1ccc2c(c1)CC1CCNC1=N2 (centres unmarked) [compound 2]
antihypertensive activity (in words) [1]: low degree of antihypertensive activity

O=C1CC2Cc3ccccc3N=C2N1 (centres unmarked) [drawing 3]
EC50 [2]: 22 µg/mL (≈ 118 µM) | EC50 [3]: 27 µg/mL (≈ 145 µM)

Cc1cccc2c1CC1CC(=O)NC1=N2 (centres unmarked) [drawing 4]
EC50 [2]: 1.5 µg/mL (≈ 7.49 µM) | EC50 [3]: 0.3 µg/mL (≈ 1.5 µM)
